Values after ≈ are worked out from the molar mass of the structure shown. Read-outs that look alike come from different tables or passages of the source.
How the values were obtained:
[1] = format: physicochemical; conditions: arsenazo III 4.5 mM, buffer pH 7.3, 50-54 mg salt in 1 ml, MLVs washed three times
Description: The 2-amino-2-methyl-1,3-propanediol salt of cholesterol hemisuccinate (50 mg) was added to a 1 ml solution of arsenazo III (4.5 mM, final concentration) in 0.01 M 2-amino-2-methyl-1,3-propanediol-HCl (pH 7.3), 0.07 M KCl, 0.07 M NaCl. The suspension of CHS-MLVs was formed by mixing vortically with glass beads. The CHS-MLVs were pelleted by centrifugation at 10,000×g for 15 minutes, and the resulting pellet was washed three times as described in Section 6.1.1.
The 2-aminoethanol salt of cholesterol hemisuccinate (50 mg) was added to a 1 ml solution of arsenazo III (4.5 mM, final concentration) in 0.01 M 2-aminoethanol-HCl (pH 7.3), 0.07 M KCl, 0.07 M NaCl. The suspension of CHS-MLVs was formed by mixing vertically with glass beads. The CHS-MLVs were pelleted by centrifugation at 10,000×g for 15 minutes, and the resulting pellet was washed three times as described in Section 6.1.1.
The suspension of CHS-MLVs was formed by mixing vertically with glass beads. The CHS-MLVs were pelleted by centrifugation at 10,000×g for 15 minutes, and the resulting pellet was washed three times as described in Section 6.1.1.
The triethanolamine salt of cholesterol hemisuccinate (50 mg) was added to a 1 ml solution of arsenazo III (4.5 mM, final concentration) in 0.01 M triethanolamine-HCL (pH 7.3), 0.07 M KCl, 0.07 M NaCl. The suspension of CHS-MLVs was formed by mixing vortically with glass beads. The CHS-MLVs were pelleted by centrifugation at 10,000×g for 15 minutes, and the resulting pellet was washed three times as described in Section 6.1.1.

[2] = cited from earlier work
[3] = Entrapment of 3H-diazepam in sonicated CHS-SUVs; conditions: Diazepam 5 mg/ml
[4] = format: physicochemical
Description: CHS-MLVs were prepared as described in Section 6.2 using 25 mg tris-salt CHS in 1.0 ml 0.01 M Tris-HCl (pH 7.4), 0.14 M NaCl buffer. The CHS-MLV preparation was sonicated to clarify to form sonicated CHS-SUVs and then either 5, 10, 15, 25, 30 or 166 mg BGH (Eli Lilly & Co., Indianapolis, Ind.) was added to separate aliquots of the sonicated CHS-SUV suspension. The suspensions were extensively mixed vortically, resulting in partitioning of the protein into the CHS-SUV bilayers. The sonicated CHS-SUV suspensions were visually observed for the presence of precipitate at 1, 2, and 21 days.
CHS-MLVs were prepared as described in Section 6.2 using 25 mg tris-salt CHS in 1.0 ml 0.01 M Tris-HCl (pH 7.4), 0.14 M Nacl buffer. The CHS-MLV preparation was sonicated to clarity to form sonicated CHS-SUVs and up to 47 mg zinc-insulin powder (Boving Pancreatic Insulin, Sigma Chemical Co., St. Louis, Mo.) was added to the CHS-SUV suspension. The suspension was extensively mixed vortically, resulting in partitioning of the insulin into the CHS-SUV bilayers. The sonicatd CHS-SUVs were visually observed for the presence of precipitate at 1, 2, and 21 days. […] Insulin entrapment occurs more rapidly at 37° C.
Small unilamellar vesicles were prepared as follows: 100 mg tylosin-base (Eli Lilly & Co., Indianapolis, Ind.) and 200 mg tris-salt CHS were mixed vertically in 4 ml phosphate buffered saline (pH 7.4). […]

[5] = Retention of 125I-human growth hormone in the hind limb after intramuscular injection; set-up: species or system Swiss-Webster mice; conditions: mouse, in vivo
Description: A group of 12 female Swiss-Webster mice were injected intramuscularly in the hind limb with 0.5 ml of the CHS-MLV entrapped ^125I-HGH suspension. A control group of 12 mice were injected with 0.5 ml free ^125I-HGH in .01 M Tris-HCl, 0.14 M NaCl buffer. Each animal in both groups received approximately 35,000 cpm/animal. At periodic intervals post-injection, the mice were sacrificed, the hind limb dissected, and percent total radioactivity remaining was determined. […] Thus, when injected intramuscularly, the CHS-liposome entrapped drug is released in a sustained fashion.

Molecule: CC(C)CCC[C@@H](C)[C@H]1CC[C@H]2[C@@H]3CC=C4C[C@@H](OC(=O)CCC(=O)O)CC[C@]4(C)[C@H]3CC[C@]12C.CC(N)(CO)CO [2-amino-2-methyl-1,3-propanediol salt of cholesterol hemisuccinate]
- entrapment of arsenazo III (colour of washed pellet) [1]: red in color indicating entrapment of the arsenazo III

Molecule: CC(C)CCC[C@@H](C)[C@H]1CC[C@H]2[C@@H]3CC=C4C[C@@H](OC(=O)CCC(=O)O)CC[C@]4(C)[C@H]3CC[C@]12C.NCCO [2-aminoethanol salt of cholesterol hemisuccinate]
- entrapment of arsenazo III (colour of washed pellet) [1]: red in color indicating entrapment of the arsenazo III

Molecule: COc1ccc2c(c1)c(CC(=O)O)c(C)n2C(=O)c1ccc(Cl)cc1 [Indomethacin]
- solubility in water [2]: practically insoluble in water

Molecule: CC(C)CCC[C@@H](C)[C@H]1CC[C@H]2[C@@H]3CC=C4C[C@@H](OC(=O)CCC(=O)O)CC[C@]4(C)[C@H]3CC[C@]12C.NC(CO)(CO)CO [Tris-salt CHS, tris(hydroxymethyl)aminomethane salt of cholesteryl hemisuccinate]
- % 3H-Diazepam Entrapped ([3]; CHS 100 mg/ml): 100%
- % 3H-Diazepam Entrapped ([3]; CHS 200 mg/ml): 100%
- entrapment of arsenazo III (colour of washed pellet) [1]: red in color indicating entrapment of the arsenazo III

Molecule: CC[C@H]1OC(=O)C[C@@H](O)[C@H](C)[C@@H](O[C@@H]2O[C@H](C)[C@@H](O[C@H]3C[C@@](C)(O)[C@@H](O)[C@H](C)O3)[C@H](N(C)C)[C@H]2O)[C@@H](CC=O)C[C@@H](C)C(=O)/C=C/C(C)=C/[C@@H]1CO[C@@H]1O[C@H](C)[C@@H](O)[C@@H](OC)[C@H]1OC [Tylosin, reference compound]
- precipitate formation (visual comparison) ([4]; 100 mg tylosin base in 4 ml: CHS-SUV supernatant versus suspension in water): A precipitate formed
- solubility in water ([2]; 25° C.): 5000 µg/mL (≈ 5.46 mM)

Molecule: CC(C)CCCC(C)C1CCC2C3CC=C4CC(OC(=O)CCC(=O)O)CCC4(C)C3CCC12C.OCCN(CCO)CCO (stereo not drawn) [triethanolamine salt of cholesterol hemisuccinate]
- entrapment of arsenazo III (colour of washed pellet) [1]: red in color indicating entrapment of the arsenazo III

Molecule: Zinc-insulin: a polypeptide hormone; zinc-insulin powder, bovine pancreatic insulin from Sigma
- solubility in aqueous phases ([2]; pH 4.5): practically insoluble

Molecule: ^125I-HGH: free 125I-labelled human growth hormone in 0.01M Tris-HCl, 0.14M NaCl
- % Radioactivity Remaining in Limb ([5]; 3 h): 5%
- % Radioactivity Remaining in Limb ([5]; 24 h): 0.7%
- % Radioactivity Remaining in Limb ([5]; 72 h): 0.2%
- % Radioactivity Remaining in Limb ([5]; 168 h): 0.3%

B1: BGH: a simple protein composed of a single chain of approximately 191 amino acids (protein, UniProt P01246 27-217, looked up)
Somatotropin: AFPAMSLSGLFANAVLRAQHLHQLAADTFKEFERTYIPEGQRYSIQNTQVAFCFSETIPAPTGKNEAQQKSDLELLRISLLLIQSWLGPLQFLSRVFTNSLVFGTSDRVYEKLKDLEEGILALMRELEDGTPRAGQILKQTYDKFDTNMRSDDALLKNYGLLSCFRKDLHKTETYLRVMKCRRFGEASCAF
- presence of precipitate at 1, 2, and 21 days ([4]; 5-166 mg BGH added to sonicated CHS-SUVs (25 mg tris-salt CHS in 1.0 ml), room temperature): No precipitate was observed
